Where two headings read alike, the source gives them in different places.
What was measured:
A549 cell = assay: Evaluation of PGE2 production inhibitory action using A549 cell (IL-1β stimulated); assay type: cell-based, human; conditions: Homo sapiens
Protocol: Experimental Example 2: Evaluation of PGE2 Production Inhibitory Action Using A549 Cell
A549 cell (Japan Health Sciences Foundation Research Resources Bank), which is cell line derived from humans lung cancer, was suspended in assay medium (Ham's F-12K (Wako, #080-08565) containing 2% FBS (Hyclone Laboratories, #SH30910.03), 100 units/mL penicillin and 100 μg/mL streptomycin (Invitrogen, #15140-122)), the suspension was added at 2.5×10^4 cells/100 μL/well to 96 well flat-bottom plate (Corning, #353072), and the plate was left standing for 20 hr in a CO2 incubator set at 37° C. The test article was serially diluted with DMSO (Nacalai Tesque, #13407-45), and then 20-fold diluted with the assay medium to prepare a test article solution having a ten-fold concentration of the final concentration. The final DMSO concentration during the reaction was set to 0.5% (v/v). The medium was removed from the plate in which the cell was added, new assay medium was added at 160 μL/well to the plate, and the plate was left standing for 10 min in a CO2 incubator. Then, the test article solution was added at 20 μL/well to the plate, and the plate was left standing for 30 min in a CO2 incubator. Next, recombinant humans IL-1β (R&D Systems, #201-LB) as a stimulant to enhance PGE2 production due to increase of mPGES-1 mRNA expression was added at 20 μL/well (the final concentration was 1 ng/mL) to the plate, and the plate was left standing for 18 hr in a CO2 incubator. The supernatant was collected at 180 μL/well, and the PGE2 concentration was measured using Prostaglandin E2 assay (CISbio Bioassays, #62P2APEC) according to the manual. As the reference standard for analytical curve, PGE2 (Cayman Chemical, #14010) was used. Using EnVision 2104 (Perkin Elmer), the time-resolved fluorescence at 620 nm and 665 nm relative to the excitation light at 337 nm was measured. PGE2 concentration was extrapolated from the PGE2 analytical curve. Average of the PGE2 concentrations of the respectively-treated wells was used as the data.
The PGE2 production inhibitory activity (%) of the test article was calculated according to the following Formula 3. PGE2 production inhibitory activity(%)=(PGE2A−PGE2X)/(PGE2A−PGE2B)×100 [Formula 3] • PGE2A: PGE2 concentration of vehicle-treated well • PGE2B: PGE2 concentration of blank well (no addition of recombinant humans IL-1B) • PGE2X: PGE2 concentration of test article-treated well

human mPGES-1 = target: T1, human mPGES-1 (Homo sapiens, UniProt O14684); assay: Evaluation of human mPGES-1 enzyme inhibitory activity (HTRF measurement of PGE2); assay type: biochemical; conditions: IC50 value; microsome fraction of CHO-S cells expressing human mPGES-1, PGH2 substrate, PGE2 by HTRF; read-out: humans mPGES-1 enzyme inhibitory activity
T1 construct: made in house; host or cells: Chinese hamster ovary-derived cells (FreeStyle CHO-S), transient transfection of pcDNA3.1(+)/human mPGES-1; microsome fraction
T1 sequence (O14684 1-152): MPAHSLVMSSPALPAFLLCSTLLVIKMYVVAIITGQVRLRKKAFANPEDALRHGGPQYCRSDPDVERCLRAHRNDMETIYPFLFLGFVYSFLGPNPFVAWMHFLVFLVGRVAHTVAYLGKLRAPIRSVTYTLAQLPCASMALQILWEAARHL
Protocol: Experimental Example 1: Evaluation of Human mPGES-1 Enzyme Inhibitory Activity
The human mPGES-1 enzyme inhibitory activity of a test article was evaluated according to the report of Xu et al. (XU, D et al. MF63 [2-(6-chloro-1H-phenanthro[9,10-d]imidazol-2-yl)-isophthalonitrile], a selective microsomal prostaglandin E synthase-1 inhibitor relieves pyresis and pain in preclinical models of inflammation. J Pharmacol Exp Ther. September 2008, Vol. 326, No. 3, pages 754-763). The amount of PGE2 produced by human mPGES-1 in the presence of a test article was measured by the HTRF (homogeneous time resolved fluorescence) method, and the human mPGES-1 enzyme inhibitory activity of the test article was determined.
1) Preparation of Human mPGES-1 Expressing Cell Microsome Fraction
A DNA fragment containing human mPGES-1, which is added with a BamHI recognition cleavage sequence just before the translation initiation codon and an EcoRI recognition cleavage sequence just after the translation termination codon, was amplified by the PCR (Polymerase Chain Reaction) method using a human mPGES-1 expression plasmid DNA (pME-18S/iPGES-1) prepared in-house as a template. The purified DNA fragment was digested with BamHI and EcoRI, and ligated to pcDNA3.1(+) (Invitrogen, model number V790-20), similarly_digested with BamHI and EcoRI, by using a DNA Ligation kit ver. 2.1 (Takara Bio, model number 6022). The human mPGES-1 expression plasmid DNA was isolated from Escherichia coli DH5a (TOYOBO, model number DNA-903) transformed with the obtained ligation product. The base sequence of human mPGES-1 cloned to a vector was determined by the Dye Terminator method using BigDye Terminator v3.1 Cycle Sequencing Kit (Applied Biosystems, #4337455). The determined sequence was identical with the sequence of the protein translational region of human mPGES-1 (Accession number NM 004878) registered in the NCBI Reference Database.
Human mPGES-1 expression plasmid DNA was transfected into Chinese hamster ovary-derived cells (FreeStyle CHO-S Cell, Invitrogen, #R^800-07) by using a transgene reagent (FreeStyle MAX Reagent (Invitrogen, #16447-100)), and cultured with shaking (8% CO2, 37° C.) in a medium containing 8 mmol/L L-glutamine (GIBCO FreeStyle CHO Expression Medium, Invitrogen, #12651-022) for 48 hr.
The CHO-S cells were suspended in Homogenate Buffer (100 mmol/L potassium phosphate (pH 7.4), 250 mmol/L Sucrose, 100 mmol/L EDTA, complete EDTA free (Roche, #1873580)). Using an ultrasonic disruptor UD-201 (Tomy Seiko), the suspended cells were disrupted at output:3, duty cycle:50 for 30 seconds. The precipitate was removed by centrifugation (1,000×g, 5 min, 4° C.), and the supernatant was centrifuged (5,000×g, 10 min, 4° C.). The supernatant was further centrifuged (105,000×g, 60 min, 4° C.). The obtained precipitate was suspended in Resuspension Buffer (100 mmol/L potassium phosphate (pH 7.4), 250 mmol/L sucrose, 100 mmol/L EDTA, 10% glycerol) to give a microsome fraction.
The protein concentration of the microsome fraction was measured by the Bradford method (Protein Assay Kit, Bio-Rad). The microsome fraction was rapidly frozen in liquid nitrogen and preserved at −80° C. Human mPGES-1 in the microsome fraction was detected by Western Blot using rabbit anti-mPGES-1 polyclonal antibody (ThermoFisher Scientific, #PA1-10264).
2) Evaluation of Human mPGES-1 Enzyme Inhibitory Activity
A test article solution diluted with 0.1 mol/L potassium phosphate, pH 7.4 (hereinafter to be referred to as KPB) or DMSO (Nacalai Tesque, #13407-45) was added at 5 μL/well to 96 well V-bottom plate (Corning, #3363). The final DMSO concentration during the reaction was set to 2%(v/v). Furthermore, a microsome fraction of CHO-S cells expressing human mPGES-1, which was diluted with reduced GSH (12.5 mmol/L KPB solution, SIGMA, #G6529-25G) such that the protein concentration was 5 μg/mL, was added at 20 μL/well. […]

[1] = A549, 18 h, IC50 value, A549 cell, recombinant IL-1β 1 ng/mL, 18 hr, PGE2 in supernatant, read-out: cell PGE2 production inhibitory activity
[2] = A549, A549 cell, recombinant human IL-1β stimulation, read-out: cell PGE2 production inhibitory activity (IC50 value)

Structure (SMILES)	IC50 (A549 cell; [1]) [nM]	IC50 (human mPGES-1) [nM]	IC50 (A549 cell; [2]) [nM]	inhibition at 0.03 µM (A549 cell; A549 cell, IL-1β stimulation, at the highest concentration given (0.03 μM), read-out: cell PGE2 production inhibitory activity (%), printed in parentheses after the > bound) [%]
CC1(c2cccc(-c3nc(O)nc(-c4cc(CNC(=O)C(C)(C)C(F)(F)F)ccc4Cl)n3)c2)CC1 [Example 49, N-(4-chloro-3-{4-hydroxy-6-[3-(1-methylcyclopropyl)phenyl]-1,3,5-triazin-2-yl}benzyl)-3,3,3-trifluoro-2,2-dimethylpropionamide]	7.3	0.5	–	–
CC(C)(C(=O)NCc1ccc(Cl)c(-c2nc(O)nc(-c3ccc(OC4CC4)nc3)n2)c1)C(F)(F)F [Example 50]	170	0.5	–	–
CCCCC(C)(C)C(=O)NCc1ccc(Cl)c(-c2nc(O)nc(-c3ccc(OCC)nc3)n2)c1 [Example 51]	410	0.6	–	–
CC(C)c1cccc(-c2nc(O)nc(-c3cc(CNC(=O)C4(C(F)(F)F)CCCC4)ccc3Cl)n2)c1 [Example 52, 1-trifluoromethylcyclopentanecarboxylic acid 4-chloro-3-[4-hydroxy-6-(3-isopropylphenyl)-1,3,5-triazin-2-yl]benzylamide]	6	1.1	–	–
Cc1ccc(-c2nc(O)nc(-c3cc(CNC(=O)C(C)(C)C(F)(F)F)ccc3Cl)n2)cc1C(C)C [Example 53]	3.7	0.4	–	–
Cc1ccc(-c2nc(O)nc(-c3cc(CNC(=O)C(C)(C)C(F)(F)F)ccc3Cl)n2)cc1C(C)(C)C [Example 54]	2.9	0.5	–	–
CC(C)c1cc(-c2nc(O)nc(-c3cc(CNC(=O)C4(C(F)(F)F)CCCC4)ccc3Cl)n2)ccc1Cl [Example 55]	2.6	1.9	–	–
CO[C@](C)(C(=O)NCc1ccc(Cl)c(-c2nc(O)nc(-c3ccc(Cl)c(C(C)C)c3)n2)c1)C(F)(F)F [Example 56]	2.6	0.7	–	–
COC1(C(=O)NCc2ccc(Cl)c(-c3nc(O)nc(-c4ccc(Cl)c(C(C)C)c4)n3)c2)CCCCC1 [Example 57]	4.5	2.9	–	–
COc1ncc(-c2nc(O)nc(-c3cc(CNC(=O)C(C)(C)C(F)(F)F)ccc3Cl)n2)cc1C(C)C [Example 58]	150	1	–	–
CC(C)(C(=O)NCc1ccc(Cl)c(-c2nc(O)nc(-c3ccc(OC4CCC4)nc3)n2)c1)C(F)(F)F [Example 59]	53	0.3	–	–
O=C(NCc1ccc(Cl)c(-c2nc(O)nc(-c3ccc(OC4CCC4)nc3)n2)c1)C1(C(F)(F)F)CCCCC1 [Example 60]	8.3	0.4	–	–
COCCCCOc1ccc(-c2nc(O)nc(-c3cc(CNC(=O)C(C)(C)C(F)(F)F)ccc3Cl)n2)cn1 [Example 61]	–	0.5	79	–
COc1ncc(-c2nc(O)nc(-c3cc(CNC(=O)C4(C(F)(F)F)CCCCC4)ccc3Cl)n2)cc1C(C)C [Example 62]	–	1	50	–
CC1(c2cccc(-c3nc(O)nc(-c4cc(CNC(=O)C5(C(F)(F)F)CCCC5)ccc4Cl)n3)c2)CC1 [Example 63]	–	1.7	14	–
CC1(c2cccc(-c3nc(O)nc(-c4cc(CNC(=O)C5(C(F)(F)F)CCCCC5)ccc4Cl)n3)c2)CC1 [Example 64]	–	1.6	5.3	–
CO[C@](C)(C(=O)NCc1ccc(Cl)c(-c2nc(O)nc(-c3cccc(C4(C)CC4)c3)n2)c1)C(F)(F)F [Example 65]	–	1.1	9.7	–
CC(C)(C)c1cc(-c2nc(O)nc(-c3cc(CNC(=O)C(C)(C)C(F)(F)F)ccc3Cl)n2)ccc1F [Example 67]	–	2.8	3.9	–
CCOCCCOc1ccc(-c2nc(O)nc(-c3cc(CNC(=O)C4(C(F)(F)F)CCCCC4)ccc3Cl)n2)cn1 [Example 68]	–	0.6	11	–
CCCOCCOc1ccc(-c2nc(O)nc(-c3cc(CNC(=O)C4(C(F)(F)F)CCCCC4)ccc3Cl)n2)cn1 [Example 69]	–	2.3	8.1	–
CC(C)c1cccc(-c2nc(O)nc(-c3cc(CNC(=O)C(C)(C)CF)ccc3Cl)n2)c1 [Example 70]	–	1.5	56	–
CCCc1cc(-c2nc(O)nc(-c3cc(CNC(=O)C4(C(F)(F)F)CCCCC4)ccc3Cl)n2)cnc1OCC [Example 72]	–	5.3	5.9	–
CCCc1cc(-c2nc(O)nc(-c3cc(CNC(=O)C(C)(C)C(F)(F)F)ccc3Cl)n2)cnc1OCC [Example 73]	–	4.2	> 30	47
CO[C@@](C)(C(=O)NCc1ccc(Cl)c(-c2nc(O)nc(-c3cccc(C(C)C)c3)n2)c1)C(F)(F)F [Example 74]	–	1.3	29	–
CCC(CC)(OC)C(=O)NCc1ccc(Cl)c(-c2nc(O)nc(-c3cccc(C(C)C)c3)n2)c1 [Example 75]	–	1.8	32	–
CC(C)c1cccc(-c2nc(O)nc(-c3cc(CNC(=O)C(C)(C)CC(F)(F)F)ccc3Cl)n2)c1 [Example 76]	–	1.3	88	–

Source: US12492182B2, “Hydroxytriazine compounds and pharmaceutical use thereof” (Japan Tobacco Inc., priority 2015, dated 2025)
